{"source": "patent US20030073740A1", "about": "“Methods for treatment of lupus erythematosus” (priority 2001, published 2003)", "key": {"rats [1]": {"system": "rats", "assay": "28-day study in rats", "assay_type": "in vivo", "experimental": "A 28-day study in rats was also carried out at 0, 50, 500 and 2000 mg/kg/day."}, "dogs [2]": {"system": "dogs", "assay": "91-day oral study in dogs", "assay_type": "in vivo"}, "human patients": {"system": "human patients", "assay": "single, escalating dose human clinical trial (safety)", "assay_type": "in vivo", "conditions": "oral, 50, 100, 200 and 400 mg BID"}, "[3]": {"target": "T1, GST-cGB-PDE5 fusion protein (cGMP binding sites of human PDE5A) (Homo sapiens, UniProt O76074)", "T1 construct": "made in house; host or cells: E. coli BL21 (DE3)", "assay": "cGMP binding assay with GST-cGB-PDE5 fusion protein", "text": "RT-PCR method is used to obtain the cGB domain of PDE5 with forward and reverse primers designed from bovine PDE5A cDNA sequence (McAllister-Lucas L. M. et al, J. Biol. Chem. 268, 22863-22873, 1993) and the selection among PDE 1-10 families. 5′-3′, Inc. kits for total RNA followed by oligo (dT) column purification of mRNA are used with HT-29 cells. […] It is then cloned into pGEX-5X-3 glutathione-S-transferase (GST) fusion vector (Pharmacia Biotech )with tac promoter, and EcoR1 and XhoI cut sites. The fusion vector is then transfected into E. Coli BL21 (DE3) bacteria (Invitrogen). The transfected BL21 bacteria is grown to log phase, and then IPTG is added as an inducer. The induction is carried at 20° C. for 24 hrs. The bacteria are harvested and lysed. The soluble cell lysate is incubated with GSH conjugated Sepharose 4B (GSH-Sepharose 4B). The GST-cGB-PDE5 fusion protein can bind to the GSH-Sepharose beads, and the other proteins are washed off from beads with excessive cold PBS.\nThen, the mixture is transferred to Brandel MB-24 cell harvester with GF/B as the filter membrane followed by 2 washes with 10 mL of cold 5 mM potassium buffer(pH 6.8). The membranes are then cut out and transferred to scintillation vials followed by the addition of 1 mL of H2O and 6 mL of Ready Safe™ liquid scintillation cocktail to each vial. The vials are counted on a Beckman LS 6500 scintillation counter.\nThe quenching by filter membrane or other debris are also calibrated."}, "PDE1": {"system": "PDE1", "assay": "PDE inhibition, similar protocols: PDE1", "assay_type": "biochemical"}, "PDE4": {"system": "PDE4", "assay": "PDE inhibition, similar protocols: PDE4", "assay_type": "biochemical"}, "rats [4]": {"system": "rats", "assay": "long-term (91-day) safety assessment study in rats", "assay_type": "in vivo", "text": "These changes were not associated with any gross clinical abnormality."}, "[5]": {"system": "TNF-α secreted by TPA-induced U937 cells", "assay": "TNF-α immunoassay on U937 cell culture media", "assay_type": "cell-based", "experimental": "One function of macrophages is to modulate the activity of other inflammatory cells through various cytokine molecules.\nTNF-α levels in the cell culture media were determined by using the TNF-α Immunoassay from R&D Systems (Cat. # DTA50) according to the manufacturer's protocol."}, "U937 cells": {"system": "U937 cells", "assay": "apoptosis induction of U937 cells (active caspase 3 immunofluorescence)", "assay_type": "cell-based", "design": "apoptosis as reflected by active caspase 3 (FIG. 8): dose or concentration left out as unconfirmed", "conditions": "for Percentage of apoptotic cells / Number of apoptotic cells: 24 hrs; for Number of apoptotic cells: active caspase 3, 500 cells scored", "experimental": "U937 cells (from ATCC Rockville, Md.) were grown in RPMI media supplemented with 5% FCS, glutamine, antibiotic/antimycotic and sodium pyruvate. Total RNA was isolated from two U937 cultures, one treated with 5 nM TPA for 48 hours and one grown in normal media as listed above, using the Rouche High Pure RNA Isolation Kit (cat# 1 828 665) as per manufacturers protocol. cDNA was then synthesized from the total RNA using GibcoBRL SuperscriptII (Cat # 18064-022) reverse transcriptase as per manufacturers protocol. The resulting cDNA was used as a template for RT-PCR reactions using primer sets specific for PDE2 (forward: […], reverse: […]) or PDE5 (forward: […], reverse: […]). mRNA for PDE2 and 5 were both present in the untreated U937 cells. Upon treatment with TPA, the relative amounts of PDE2 mRNA increased 5 fold. Therefore, U937 cells treated with TPA and driven to differentiate into an activated macrophage like state have elevated levels of PDE2 mRNA (see FIG. 1).\nThe presence of PDE2 and PDE5 protein within U937 cells was confirmed by indirect immunofluorescence (IIF). U937 cells were cultured as above. Two U937 cultures, one grown in the presence of 5 nM TPA for 48 hours and one grown in normal media were processed. All cultures were collected by centrifugation (Shandon Cytospin, 2 minutes @ 600 rpm) onto poly-L lysine-coated slides and immediately fixed in fresh 3% paraformaldehyde buffered in PBS for 10 minutes. Adherent cultures were grown on coverslips and fixed as above. Cells were permeablized in 0.2% triton-100 for 2 minutes. Slides were blocked with blocking buffer (5% goat serum, 5% glycerol, 1% gelatin from cold water fish skin and 0.04% NaN3 in PBS) for 1 hour at room temperature.\nAdherent cells were dislodged by treatment with trypsin EDTA for 5 minutes at 37° C. Cells were then processed for IIF as described above, except that an antibody specific for active caspase 3 was used (as per manufacturer's protocol) instead of antibodies to PDE2 or 5 (Promega Cat. #G7481). The anti-active caspase 3 antibody was diluted 1:200 in blocking buffer and processed according to the manufacturer's protocol. The resulting slides were observed under a fluorescent microscope and a digital images were obtained.\nThe level of apoptosis in U937 cells was quantified by scoring 500 consecutive cells for the presence of active caspase 3.\nThe cells were harvested and processed for IIF as described above using an antibody that specifically recognizes active caspase 3. […] Therefore, the inhibition of only PDE4 or PDE5 alone (i.e. without the inhibition of PDE2) is not sufficient to induce apoptosis in U937 cells."}, "dogs [6]": {"system": "dogs", "assay": "acute and seven-dose toxicity in dogs (capsules)", "conditions": "dog, in vivo", "procedure": "Therefore, these dogs were subsequently administered seven consecutive doses of 1000 mg/kg/day."}, "PDE5": {"target": "T2, PDE5 (Homo sapiens, UniProt O76074)", "T2 construct": "partially purified cGMP-specific PDE isolated from HT-29 cells; endogenous in cells; host or cells: HT-29", "assay": "competitive binding (with cGMP) to PDE5"}, "rats [7]": {"system": "rats", "assay": "acute toxicity study in rats", "conditions": "rat, in vivo"}, "rats [8]": {"system": "rats", "assay": "seven-day dose-range finding study in rats", "assay_type": "in vivo", "conditions": "seven days"}, "[9]": {"conditions": "28 days, 50, 500 and 2000 mg/kg/day"}, "[10]": {"conditions": "U937, TPA 5 nM, 16 hrs, then 1 uM"}}, "note": "Where a name gives a salt, the structure may show the parent alone."}
{"smiles": "CC1=C(CC(=O)NCc2ccccc2)c2cc(F)ccc2/C1=C\\c1ccncc1", "note": "[Compound 38, (Z)-5-Fluoro-2-Methyl-(4-Pyridylidene)-3-(N-Benzyl) Indenylacetamide Hydrochloride]", "values": [{"measurement": "macroscopic tissue changes at necropsy", "setting": "rats [1]; 28 days", "value": "No macroscopic tissue changes"}, {"measurement": "liver weights", "setting": "rats [1]; 28 days, 2000 mg/kg/day", "value": "statistically significant increase in liver weights"}, {"measurement": "thyroid weights", "setting": "rats [1]; 28 days, 2000 mg/kg/day", "value": "statistically significant increases in thyroid weights"}, {"measurement": "body weight changes, ophthalmoscopic examinations, hematological and blood chemistry values, urinalysis", "setting": "rats [1]; [9]", "value": "unremarkable"}, {"measurement": "clinical observations", "setting": "rats [1]; [9]", "value": "no abnormal clinical observations"}, {"measurement": "slight liver and thyroid weight increases", "setting": "rats [1]; 28 days, lower doses", "value": "not statistically significant"}, {"measurement": "histopathological evaluation of tissues", "setting": "rats [1]; 28 days, small number of animals at 2000 mg/kg/day, one female at 500 mg/kg/day", "value": "traces of follicular cell hypertrophy, increased numbers of mitotic figures (suggestive of possible cell proliferation) in the thyroid gland and mild centrilobular hypertrophy in the liver"}, {"measurement": "tolerability", "setting": "dogs [2]; 91 days", "value": "well tolerated"}, {"measurement": "feces observation", "setting": "dogs [2]; 91 days, 150 and 300 mg/kg/day", "value": "Orange discoloration of the feces"}, {"measurement": "body weights", "setting": "dogs [2]; 91 days, highest dose group", "value": "Slightly lowered body weights"}, {"measurement": "liver weights", "setting": "dogs [2]; 91 days, highest dose group", "value": "increased liver weights"}, {"measurement": "microscopic alterations (liver)", "setting": "dogs [2]; 91 days, highest dose group", "value": "no microscopic alterations"}, {"measurement": "route of elimination (suggested by feces colour)", "setting": "dogs [2]; 91 days, oral", "value": "most of Compound 38 was being eliminated via the feces"}, {"measurement": "toxicological effects", "setting": "dogs [2]; oral, 91 consecutive days, 50, 150 and 300 mg/kg/day", "value": "no toxicological effects"}, {"measurement": "side effects", "setting": "human patients", "value": "no significant side effects"}, {"measurement": "binding to the cGMP-binding site of PDE5", "setting": "[3]", "value": "does not bind"}, {"measurement": "IC50", "setting": "PDE1", "value": 3, "unit": "µM"}, {"measurement": "IC50", "setting": "PDE4", "value": 6, "unit": "µM"}, {"measurement": "clinical biochemistry and hematology", "setting": "rats [4]; 91 days", "value": "no changes in clinical biochemistry and hematology"}, {"measurement": "microscopic finding, follicular cells", "setting": "rats [4]; 91 days, 500 mg/kg/day", "value": "follicular cell hypertrophy"}, {"measurement": "microscopic finding, kidneys", "setting": "rats [4]; 91 days, 200 and 500 mg/kg/day", "value": "increase in accumulation of hyalin droplets in the kidneys"}, {"measurement": "microscopic finding, liver", "setting": "rats [4]; 91 days, 200 and 500 mg/kg/day", "value": "slight hepatocellular hypertrophy"}, {"measurement": "organ weights", "setting": "rats [4]; 91 days, males and females at 200 and 500 mg/kg/day", "value": "dose-related trend to increased liver and thyroid/parathyroid weights"}, {"measurement": "toxicological effects", "setting": "rats [4]; oral, 91 consecutive days, 50, 200 and 500 mg/kg/day", "value": "did not produce any major toxicological effects"}, {"measurement": "level of TNF-α secreted (FIG. 12)", "setting": "[5]", "value": "significantly reduced"}, {"measurement": "Percentage of apoptotic cells", "setting": "U937 cells; [10]", "value": 78, "unit": "%"}, {"measurement": "Number of apoptotic cells", "setting": "U937 cells; [10]", "value": "392/500"}, {"measurement": "Percentage of apoptotic cells", "setting": "U937 cells; U937, no TPA treatment, 1 uM", "value": 75, "unit": "%"}, {"measurement": "Number of apoptotic cells", "setting": "U937 cells; U937, no TPA treatment, 1 uM", "value": "375/500"}, {"measurement": "apoptosis as reflected by active caspase 3 (FIG. 8)", "setting": "U937 cells; U937 cells treated with compound 38", "value": "undergoing apoptosis"}, {"measurement": "induction of apoptosis", "setting": "U937 cells; differentiated and non-differentiated U937 cell line", "value": "causes the induction of apoptosis"}, {"measurement": "signs of toxicity", "setting": "dogs [6]; 1000 mg/kg", "value": "no signs of toxicity"}, {"measurement": "signs of drug-related effects", "setting": "dogs [6]; 1000 mg/kg/day", "value": "At no time in either dosing phase were any obvious signs of drug-related effects observed"}, {"measurement": "competitive (with cGMP) binding to PDE5", "setting": "PDE5", "value": "does competitively (with cGMP) bind"}, {"measurement": "body weight gain", "setting": "rats [7]; ip, 1000 mg/kg", "value": "reduced body weight gain"}, {"measurement": "necropsy findings", "setting": "rats [7]; ip, 1000 mg/kg", "value": "mesenteric adhesions seen in some animals"}, {"measurement": "body weight gains", "setting": "rats [7]; po, 2000 mg/kg", "value": "slightly reduced"}, {"measurement": "signs of toxicity", "setting": "rats [8]; 50 mg/kg/day", "value": "no observable signs of toxicity"}, {"measurement": "treatment-related effects", "setting": "rats [8]; 500 mg/kg/day", "value": "increase in absolute and relative liver weights in female rats"}, {"measurement": "treatment-related effects", "setting": "rats [8]; 2000 mg/kg/day", "value": "labored breathing and/or abnormal respiratory sounds, decreased weights gains and food consumption in male rats, and increased liver weights in female rats"}, {"measurement": "hematology, blood chemistry, microscopic pathology", "setting": "rats [8]; any dose level (50, 500, 2000 mg/kg/day)", "value": "No hematological or blood chemistry changes nor any microscopic pathology changes"}]}
